This passage reports IC50 results from ChEMBL document CHEMBL2021834, “Novel sulfonylurea derivatives as H3 receptor antagonists. Preliminary SAR studies” (Eur J Med Chem, 2012).

Molecules are shown by their SMILES.

This assay addresses Voltage-gated inwardly rectifying potassium channel KCNH2 (Homo sapiens, UniProt Q12809).

Sequence of Voltage-gated inwardly rectifying potassium channel KCNH2 (Q12809 whole entry): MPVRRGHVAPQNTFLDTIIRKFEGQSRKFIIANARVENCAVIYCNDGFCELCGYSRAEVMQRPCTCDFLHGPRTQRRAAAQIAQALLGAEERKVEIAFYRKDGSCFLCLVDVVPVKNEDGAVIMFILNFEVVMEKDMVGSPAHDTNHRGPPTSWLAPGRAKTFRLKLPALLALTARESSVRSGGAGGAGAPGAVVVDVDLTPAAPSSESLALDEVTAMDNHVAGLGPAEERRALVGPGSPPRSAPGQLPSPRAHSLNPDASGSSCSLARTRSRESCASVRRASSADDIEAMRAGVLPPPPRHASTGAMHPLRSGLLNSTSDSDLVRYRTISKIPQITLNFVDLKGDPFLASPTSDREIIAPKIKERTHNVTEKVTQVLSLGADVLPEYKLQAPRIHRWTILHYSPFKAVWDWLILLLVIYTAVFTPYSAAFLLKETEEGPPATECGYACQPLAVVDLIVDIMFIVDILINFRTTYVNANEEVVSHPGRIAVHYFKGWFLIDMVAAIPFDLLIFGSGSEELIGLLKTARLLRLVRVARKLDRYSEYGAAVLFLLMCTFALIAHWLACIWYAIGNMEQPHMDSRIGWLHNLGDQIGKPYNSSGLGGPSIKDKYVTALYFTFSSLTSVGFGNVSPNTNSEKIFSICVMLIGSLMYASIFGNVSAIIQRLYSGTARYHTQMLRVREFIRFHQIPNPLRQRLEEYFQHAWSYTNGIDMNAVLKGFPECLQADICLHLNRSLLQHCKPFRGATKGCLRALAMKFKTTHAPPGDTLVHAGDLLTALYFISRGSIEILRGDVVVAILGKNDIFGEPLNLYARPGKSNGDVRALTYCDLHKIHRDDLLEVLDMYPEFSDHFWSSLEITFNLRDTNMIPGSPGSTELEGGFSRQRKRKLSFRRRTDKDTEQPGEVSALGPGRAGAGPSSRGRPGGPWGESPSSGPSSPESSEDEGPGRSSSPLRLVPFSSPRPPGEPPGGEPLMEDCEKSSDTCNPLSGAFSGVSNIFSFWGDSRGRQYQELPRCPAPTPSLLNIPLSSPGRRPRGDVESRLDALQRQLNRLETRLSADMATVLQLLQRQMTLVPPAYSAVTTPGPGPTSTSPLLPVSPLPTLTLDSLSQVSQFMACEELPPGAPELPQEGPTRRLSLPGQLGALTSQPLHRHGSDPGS
Description: Displacement of [3H] dofetilide from human ERG channel expressed in HEK293 cells after 45 mins by scintillation counting method

Take `O=C(Nc1ccc(C(F)(F)F)cc1)NS(=O)(=O)c1ccc(OCCN2CCCC2)cc1`: the IC50 – broadly, the concentration at which inhibition is half-maximal – is more than 100 µM.
As to `O=C(Nc1ccccc1)NS(=O)(=O)c1ccc(OCCCN2CCCCC2)cc1`, the IC50 was more than 100 µM.
Under `O=C(Nc1cccc2ccccc12)NS(=O)(=O)c1ccc(OCCCN2CCCC2)cc1` stands more than 100 µM; under `O=C(Nc1ccc(C(F)(F)F)cc1)NS(=O)(=O)c1ccc(OCCN2CCCCC2)cc1`, more than 100 µM.
`O=C(Nc1ccccc1C(F)(F)F)NS(=O)(=O)c1ccc(OCCCN2CCCCC2)cc1` had an IC50 of more than 100 µM.
Under `CCOC(=O)C1CCN(CCCCOc2ccc(S(N)(=O)=O)cc2)CC1` stands 18.8 µM; under `CCOC(=O)C1CCN(CCCCOc2ccc(S(=O)(=O)NC(=O)Nc3ccccc3)cc2)CC1`, more than 100 µM.
In turn, `Cc1ccc(NC(=O)NS(=O)(=O)c2ccc(OCCCN3CCCCC3)cc2)cc1` showed an IC50 of more than 100 µM.
`CCOC(=O)C1CCN(CCOc2ccc(S(=O)(=O)NC(=O)Nc3ccccc3)cc2)CC1`: the IC50 is more than 100 µM.
`O=C(Nc1ccc(C(F)(F)F)cc1)NS(=O)(=O)c1ccc(OCCCCN2CCCC2)cc1` registered an IC50 of 49.1 µM. This counts as double-digit micromolar.
`O=C(Nc1cc(Cl)ccc1Cl)NS(=O)(=O)c1ccc(OCCCCN2CCCCC2)cc1` returned an IC50 of more than 100 µM.
Under `CCOC(=O)C1CCN(CCCOc2ccc(S(N)(=O)=O)cc2)CC1` stands 76.5 µM; under `COc1ccc(NC(=O)NS(=O)(=O)c2ccc(OCCCN3CCCCC3)cc2)cc1`, more than 100 µM; under `CC(C)NC(=O)NS(=O)(=O)c1ccc(OCCN2CCCC2)cc1`, more than 100 µM.
